In US20230108093A1, “METHODS FOR PREDICTING AND TREATING LAMENESS” (Novus International, Inc., priority 2021, published 2023):

Tested on: barrows
Test: Fast growth study (Example 2): average daily growth, gait score, lameness incidence
Assay type: in vivo, pig
Conditions: pigs fed RAC 10 ppm last 25 days, regardless of diet
Protocol: A study was conducted in 144 healthy barrows, in which serum biomarkers were measured over 69 days at day 0, day 28, and day 69. Fast growth was induced in some pigs as explained below.
The study was a 2×2 factorial study. The first factor was diet. Pigs were fed either inorganic trace minerals (ITM) or Mintrex° (MTX), an organic mineral. The ITM included a ratio of 120-20-40 ppm Zn—Cu—Mn. The MTX included a ratio of 80-10-20 ppm Zn—Cu—Mn.
The second factor was feeding ractopamine (RAC; a beta-adrenergic agonist) to induce fast growth. Pigs were fed ractopamine at either 0 ppm or 10 ppm during the last 25 days of the trial.

**Q.** How did the “ADG (average daily growth)” value turn out when `CC(CCc1ccc(O)cc1)NCC(O)c1ccc(O)cc1` (racemic) [RAC, ractopamine] was run?
**A.** The value was “increased”.
